Data taken from patent US4666908A, “5-Substituted pyrazolo[4,3-d]pyrimidine-7-ones and methods of use” (Warner-Lambert Company, priority 1985, dated 1987).
Where two headings read alike, the source gives them in different places. One block for each compound: values may come before it.

Assays:
Type 3 Phosphodiesterase = assay: Phosphodiesterase (PDE) Inhibition, Type 3 Phosphodiesterase; assay type: biochemical, bovine (coronary arteries); conditions: Type 3 PDE, at 10^-5 M, substrate 3H-cAMP 1.0 μM
Description: (§1) The method of Thompson, et al (Thompson, W. J., Terasaki, W. L., Epstein, P. M., Strada, S. J., Adv. Cyclic Nucleotide Res., 10:69-92, 1979), with minor modifications, was used to isolate phosphodiesterases from vascular smooth muscle. Bovine coronary arteries (right, anterior descending, and left circumflex arteries) from hearts obtained from a local slaughterhouse were used for these studies. Arteries from two hearts were used for each isolation. Hearts were kept on ice and the arteries were dissected within two hours after the animals were sacrificed. After removing all fat and connective tissue, the arteries were everted, cut into cubes with a single edge razor blade and homogenized with a Brinkman Polytron three times at a rheostat setting of 10.0 in four volumes of the PDE isolation buffer (10 mM Tris-HCl/pH 7.5, 2 mM MgCl2, and 1 mM dithiothreitol). The resulting homogenate was sonicated (30 sec/ml homogenate) and then centrifuged at 30,000 xg for 20 minutes. This and all subsequent procedures were performed at 4° C. The resulting supernatant was filtered through four layers of gauze, and applied to a DEAE-cellulose column (30×1.5 cm), prepared as described by Cheung (Cheung, W. Y., Biochim. Biophys. Acta, 191:303-315, 1969), and equilibrated with freshly prepared 70 mM sodium acetate/5 mM 2-mercaptoethanol (pH 6.5). The column was then washed with 2-3 bed volumes of sodium acetate/2-mercaptoethanol, after which the phosphodiesterases were eluted from the column using a continuous 70-1,000 mM sodium acetate gradient (pH 6.5, containing 5 mM 2-mercaptoethanol; total volume 400 ml). The flow rate was approximately equal to 25 ml/hr. Eight ml fractions were collected and assayed for cyclic AMP- and cyclic GMP-phosphodiesterase activity in the presence and absence of 0.1 units of calmodulin and 10 mM CaCl2. Appropriate fractions were pooled and dialyzed against 70 mM sodium acetate/5 mM 2-mercaptoethanol for 20 hours.
(§2) Following complete separation, the combined phosphodiesterase fractions were concentrated to 14% of the original volume using an Amicon ultrafiltration cell fitted with a UM-10 membrane, according to the method of Wells, et al (Wells, J. N., Baird, C. E., Wu, Y. J., Hardman, J. G., Biochim. Biophys. Acta, 384:430-442, 1975). Following concentration, the protein was then diluted to 65% with ethylene glycol monoethyl ether, and stored at -20° C.
(§3) Phosphodiesterase activity was measured as described previously (Weishaar, P. E., Quade, M., Boyd, D., Schenden, J., Mark, S. S., Kaplan, H. R., Drug Devel. Res., 3:517-534, 1983), in a reaction medium containing 40 mM Tris-HCl (pH 8.0), 5 mM MgCl and 4 mM 2-mercaptoethanol. Unless otherwise noted, the concentration of substrate (^3 H-cyclic AMP or ^3 H-cyclic GMP) was 1.0 μM. All agents examined were dissolved in dimethyl sulfoxide (DMSO). Final concentration of the reaction medium was either 2.5% (cardiac and platelet studies) or 1.25% (smooth muscle studies). This concentration of DMSO produced an approximately 10% inhibition of enzyme activity.

Type 1 Phosphodiesterase = assay: Phosphodiesterase (PDE) Inhibition, Type 1 Phosphodiesterase; assay type: biochemical, bovine (coronary arteries); conditions: Type 1 PDE, at 10^-5 M; for % Inhibition of hydrolysis of 3H-cAMP: substrate 3H-cAMP 1.0 μM; for % Inhibition of hydrolysis of 3H-cGMP: substrate 3H-cGMP 1.0 μM
Description: as §1, §2, §3

adenosine A1 receptor = target: T1, adenosine A1 receptor (Rattus norvegicus, UniProt P25099); assay: Adenosine Receptor Binding - A1 Receptor Affinity (RBA1), [3H]-N6-cyclohexyladenosine displacement; conditions: [3H]-CHA 1.0 nM, rat brain membranes, 25° C., one hour; read-out: RBA-1, IC50 for adenosine A1 receptor affinity
T1 construct: Whole brain minus cerebellum and brainstem from male Long Evans rats; from tissue; host or cells: whole brain minus cerebellum and brainstem, male Long Evans rats (membranes)
T1 sequence (P25099 1-326): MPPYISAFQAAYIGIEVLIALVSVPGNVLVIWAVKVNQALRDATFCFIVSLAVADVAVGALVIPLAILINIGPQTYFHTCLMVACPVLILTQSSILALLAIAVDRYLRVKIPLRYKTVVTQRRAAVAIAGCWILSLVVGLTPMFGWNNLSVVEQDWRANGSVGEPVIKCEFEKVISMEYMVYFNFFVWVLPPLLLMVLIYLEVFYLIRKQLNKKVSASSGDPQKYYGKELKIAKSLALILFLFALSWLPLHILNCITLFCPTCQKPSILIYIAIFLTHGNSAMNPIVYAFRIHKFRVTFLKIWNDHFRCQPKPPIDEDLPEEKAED
Method: Whole brain minus cerebellum and brainstem from male Long Evans rats (150-200 g) was homogenized in 30 volumes of ice-cold 0.05M Tris-HCl buffer pH 7.7 using a Brinkman Polytron PT-10, (setting number 6 for 20 seconds) and centrifuged for ten minutes at 20,000×g (Sorvall RC-2), 4° C. The supernatant was discarded, and the pellet was resuspended and centrifuged as before. […] The homogenate was again centrifuged, and the final pellet was resuspended in ice-cold 0.05 M Tris-HCl buffer pH 7.7 to a concentration of 20 mg/ml original wet tissue weight and used immediately. […] Incubation volume was 2 ml. […] The filters were rinsed three times with 5 ml of ice cold 0.05 M Tris-HCl buffer pH 7.7. The radio-labeled ligand retained on the filter was measured by liquid scintillation spectrophotometry after shaking the filters for one hour or longer on a mechanical shaker in 10 ml of Beckman Ready-Solv HP scintillation cocktail. […] The Hill coefficient was calculated by linear regression of the line obtained by plotting the log of the bound radioligand vs the log of the [formula] The maximal number of binding sites (Bmax) was calculated from the Scatchard plot.

[1] = system: pentobarbital-anesthetized dog; assay: In Vivo Myocardial Inotropic Activity in Anesthetized Dog (CVAD); parameters: species or system dog (adult mongrel); conditions: for change in vivo at 0.01 mg/kg / change in vivo at 0.03 mg/kg / change in vivo at 0.1 mg/kg / change in vivo at 0.3 mg/kg / change in vivo at 1 mg/kg / change in vivo at 0.31 mg/kg / change in vivo at 3.1 mg/kg: Canis lupus familiaris, iv; for change in vivo at 0.3 mg/kg: Test 1, 0.30 mg/kg IV; for change in vivo at 3.1 mg/kg: 3.10 mg/kg IV
Method: This test procedure is described in the following paragraphs.
This screen consists of determining the effects of increasing intravenous doses of compound on mycardial contractility (dP/dt max of left ventricular blood pressure), heart rate, and aortic blood pressure of the pentobarbital-anesthetized dog.
Adult mongrel dogs of either sex are anesthetized with pentobarbital, 35 mg/kg, IV, and are subsequently maintained under anesthesia with a continuous infusion of pentobarbital, 3.5 mg/kg/hour. The trachea is intubated but the animals are permitted to breathe spontaneously. A cannula is inserted into the femoral vein for administrating test agents. A Millar catheter tip pressure transducer or a fluid filled catheter is inserted into the ascending aorta via the femoral artery for measuring aortic blood pressure. A Millar catheter tip pressure transducer is passed into the left ventricle via the left carotid artery for measuring left ventricular blood pressure. Needle electrodes are placed subcutaneously for recording a lead II electrocardiogram (ECG).
Left ventricular and aortic blood pressures are recorded on a strip chart recorder. Heart rate, using a biotachometer triggered from the R wave of the ECG, and the first derivative of left ventricular blood pressure (dP/dt), obtained with a differentiator amplifier coupled to the corresponding pressure amplifier, are also recorded. A period of at least 30 minutes is utilized to obtain control data prior to administration of test compound.
Ethanol or dimethylacetamide can be used as solvents if adequate dilutions can be made. Appropriate vehicle controls are administered when needed.
Each dose of the test compound is administered in a volume of […] over a period of one minute.

[2] = read-out: Percent Change Heart Rate
[3] = read-out: Percent Change Myocardial Contractility
[4] = 0.31 mg/kg IV, read-out: Percent Change Heart Rate
[5] = 0.31 mg/kg IV, read-out: Percent Change Myocardial Contractility
[6] = 1.00 mg/kg IV, read-out: Percent Change Heart Rate
[7] = 1.00 mg/kg IV, read-out: Percent Change Myocardial Contractility

SMILES: Cc1nn(C)c2c(O)nc(-c3ccc(S(=O)(=O)O)cc3)nc12 [Example 20, 1,3-Dimethyl-5-(4-sulfoacid phenyl)pyrazolo[4,3-d]pyrimidine-7-one]
IC50 (adenosine A1 receptor): 13 µM

SMILES: Cc1nn(C)c2c(=O)[nH]c(-c3ccc(Cl)cc3N)nc12 [Example 19, 1,3-Dimethyl-5-(2-amino-4-chlorophenyl)pyrazolo[4,3-d]pyrimidine-7-one]
% Inhibition of hydrolysis of 3H-cAMP (Type 3 Phosphodiesterase): 5%
% Inhibition of hydrolysis of 3H-cAMP (Type 1 Phosphodiesterase): 16%
% Inhibition of hydrolysis of 3H-cGMP (Type 1 Phosphodiesterase): 12%
IC50 (adenosine A1 receptor): 0.314 µM

SMILES: COc1cc(OC)cc(-c2nc3c(C)nn(C)c3c(=O)[nH]2)c1 [Example 23, 1,3-Dimethyl-5-(3,5-dimethoxyphenyl)pyrazolo[4,3-d]-pyrimidine-7-one]
Percent Change Blood Pressure ([1]; 0.01 mg/kg IV): 2/2
Percent Change Blood Pressure ([1]; 0.31 mg/kg IV): 3/4
change in vivo at 0.01 mg/kg ([1]; 0.01 mg/kg IV, read-out: Percent Change Heart Rate): 1%
change in vivo at 0.01 mg/kg ([1]; 0.01 mg/kg IV, read-out: Percent Change Myocardial Contractility): 5%
change in vivo at 0.31 mg/kg [1, 4]: 3%
change in vivo at 0.31 mg/kg [1, 5]: 15%
change in vivo at 1 mg/kg [1, 6]: 6%
change in vivo at 1 mg/kg [1, 7]: 22%

SMILES: COc1ccccc1-c1nc2c(C)nn(C)c2c(=O)[nH]1 [Example 14]
change in vivo at 0.1 mg/kg ([1]; 0.10 mg/kg IV, read-out: Percent Change Heart Rate): 2%
change in vivo at 0.1 mg/kg ([1]; 0.10 mg/kg IV, read-out: Percent Change Myocardial Contractility): 2%
change in vivo at 0.31 mg/kg [1, 4]: 4%
change in vivo at 0.31 mg/kg [1, 5]: 4%
change in vivo at 1 mg/kg [1, 6]: 14%
change in vivo at 1 mg/kg [1, 7]: 10%
change in vivo at 3.1 mg/kg [1, 2]: 27%
change in vivo at 3.1 mg/kg [1, 3]: 34%
IC50 (adenosine A1 receptor): 10 µM

SMILES: Cc1nn(C)c2c(=O)[nH]c(-c3ccc(S(=O)(=O)NCCN(C)C)cc3)nc12 [Example 21]
IC50 (adenosine A1 receptor): 0.684 µM

More lines, main results first:

% Inhibition of hydrolysis of 3H-cAMP (Type 3 Phosphodiesterase): 13%
% Inhibition of hydrolysis of 3H-cAMP (Type 1 Phosphodiesterase): 7%
% Inhibition of hydrolysis of 3H-cGMP (Type 1 Phosphodiesterase): 11%
IC50 (adenosine A1 receptor): 0.408 µM
SMILES: Cc1nn(C)c2c(=O)[nH]c(-c3ccc(Cl)cc3)nc12 [Example 7, 1,3-Dimethyl-5-(4-chlorophenyl)pyrazolo[4,3-d]pyrimidne-7-one]

% Inhibition of hydrolysis of 3H-cAMP (Type 3 Phosphodiesterase): -9%
% Inhibition of hydrolysis of 3H-cAMP (Type 1 Phosphodiesterase): 12%
% Inhibition of hydrolysis of 3H-cGMP (Type 1 Phosphodiesterase): 1%
IC50 (adenosine A1 receptor): 0.463 µM
SMILES: Cc1nn(C)c2c(=O)[nH]c(-c3ccc(C(F)(F)F)cc3)nc12 [Example 10]

IC50 (adenosine A1 receptor): 8.2 µM
SMILES: CCn1nc(C)c2nc(Cc3ccccc3)[nH]c(=O)c21 [Example 22]
change in vivo at 0.01 mg/kg ([1]; Test 1, 0.01 mg/kg IV, read-out: Percent Change Heart Rate): -1%
change in vivo at 0.01 mg/kg ([1]; Test 1, 0.01 mg/kg IV, read-out: Percent Change Myocardial Contractility): 11%
change in vivo at 0.03 mg/kg ([1]; Test 1, 0.03 mg/kg IV, read-out: Percent Change Heart Rate): -1%
change in vivo at 0.03 mg/kg ([1]; Test 1, 0.03 mg/kg IV, read-out: Percent Change Myocardial Contractility): 12%
change in vivo at 0.1 mg/kg ([1]; Test 1, 0.10 mg/kg IV, read-out: Percent Change Heart Rate): -4%
change in vivo at 0.1 mg/kg ([1]; Test 1, 0.10 mg/kg IV, read-out: Percent Change Myocardial Contractility): 17%
change in vivo at 0.3 mg/kg [1, 2]: -10%
change in vivo at 0.3 mg/kg [1, 3]: 6%
change in vivo at 1 mg/kg ([1]; Test 1, 1.00 mg/kg IV, read-out: Percent Change Heart Rate): -12%
change in vivo at 1 mg/kg ([1]; Test 1, 1.00 mg/kg IV, read-out: Percent Change Myocardial Contractility): 14%
change in vivo at 0.01 mg/kg ([1]; Test 2, 0.01 mg/kg IV, read-out: Percent Change Heart Rate): -14%
change in vivo at 0.01 mg/kg ([1]; Test 2, 0.01 mg/kg IV, read-out: Percent Change Myocardial Contractility): -12%
change in vivo at 0.03 mg/kg ([1]; Test 2, 0.03 mg/kg IV, read-out: Percent Change Heart Rate): -17%
change in vivo at 0.03 mg/kg ([1]; Test 2, 0.03 mg/kg IV, read-out: Percent Change Myocardial Contractility): -13%
change in vivo at 0.1 mg/kg ([1]; Test 2, 0.10 mg/kg IV, read-out: Percent Change Heart Rate): -21%
change in vivo at 0.1 mg/kg ([1]; Test 2, 0.10 mg/kg IV, read-out: Percent Change Myocardial Contractility): -15%
change in vivo at 0.31 mg/kg ([1]; Test 2, 0.31 mg/kg IV, read-out: Percent Change Heart Rate): -22%
change in vivo at 0.31 mg/kg ([1]; Test 2, 0.31 mg/kg IV, read-out: Percent Change Myocardial Contractility): -14%
change in vivo at 1 mg/kg ([1]; Test 2, 1.00 mg/kg IV, read-out: Percent Change Heart Rate): -11%
change in vivo at 1 mg/kg ([1]; Test 2, 1.00 mg/kg IV, read-out: Percent Change Myocardial Contractility): 2%
Percent Change Blood Pressure ([1]; Test 1, 0.01 mg/kg IV): 1/0

% Inhibition of hydrolysis of 3H-cAMP (Type 3 Phosphodiesterase): 17%
% Inhibition of hydrolysis of 3H-cAMP (Type 1 Phosphodiesterase): 15%
% Inhibition of hydrolysis of 3H-cGMP (Type 1 Phosphodiesterase): 26%
IC50 (adenosine A1 receptor): 5.43 µM
SMILES: COc1ccc(-c2nc3c(C)nn(C)c3c(=O)[nH]2)c(OC)c1 [Example 17, 1,3-Dimethyl-5-(2,4-dimethoxyphenyl)pyrazolo[4,3-d]-pyrimidine-7-one]
